One series concerns the target CYP2E1 (Homo sapiens, UniProt P05181). In words: N-in-one CYP inhibition assay in human liver microsomes. The method, then: (§1) Human liver microsomes were prepared and pooled from ten human livers (HL20–24,28–32) as previously described. Human liver samples were obtained from the University Hospital of Oulu as surplus tissue from cadaver kidney transplant donors. The collection of surplus tissue was approved by the Ethics Committee of the Medical Faculty of the University of Oulu, Finland. All donors were Caucasians ranging in age from 21 to 62 years; four were female and six were male. Detailed information on each donor has been published previously. Protein concentrations were measured using the Bradford method.
(§2) In vitro inhibition of CYP isoforms was first assessed using the N-in-one approach (also called the cocktail approach). CYP-selective substrates and reactions are listed in Table 1; concentrations were roughly at or below the respective Michaelis-Menten coefficients. […] A Micromass LCT time-of-flight high-resolution mass spectrometer (Micromass Ltd., Manchester, UK) equipped with a Z-spray electrospray ionization source was used for the monitoring of CYP-selective reactions. Integrated mass chromatogram peak areas were normalized versus internal standards before comparing metabolites in different preparations. More details of the assay are available in previous publications.
(Liver microsomes are a subcellular fraction often used to study metabolism.)

In another series the target is T1, CYP2A6 (Homo sapiens, UniProt P11509).
T1 sequence (P11509 1-494): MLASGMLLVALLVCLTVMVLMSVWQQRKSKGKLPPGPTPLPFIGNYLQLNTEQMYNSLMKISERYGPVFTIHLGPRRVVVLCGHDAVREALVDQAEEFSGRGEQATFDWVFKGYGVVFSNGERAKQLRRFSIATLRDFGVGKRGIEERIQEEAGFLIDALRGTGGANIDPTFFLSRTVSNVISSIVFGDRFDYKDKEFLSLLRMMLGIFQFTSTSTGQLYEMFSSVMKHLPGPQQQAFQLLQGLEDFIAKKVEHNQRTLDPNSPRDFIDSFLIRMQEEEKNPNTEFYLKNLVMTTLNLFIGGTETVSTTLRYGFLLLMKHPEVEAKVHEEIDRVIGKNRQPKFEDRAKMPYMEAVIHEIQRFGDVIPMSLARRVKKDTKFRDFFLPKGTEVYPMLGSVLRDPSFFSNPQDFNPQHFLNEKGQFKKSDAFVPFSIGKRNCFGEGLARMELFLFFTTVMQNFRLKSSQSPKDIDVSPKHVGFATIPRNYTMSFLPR
Described as above. How it is done:
as §1, §2

Another series has as its target T2, CYP2C8 (Homo sapiens, UniProt P10632).
T2 sequence (P10632 1-490): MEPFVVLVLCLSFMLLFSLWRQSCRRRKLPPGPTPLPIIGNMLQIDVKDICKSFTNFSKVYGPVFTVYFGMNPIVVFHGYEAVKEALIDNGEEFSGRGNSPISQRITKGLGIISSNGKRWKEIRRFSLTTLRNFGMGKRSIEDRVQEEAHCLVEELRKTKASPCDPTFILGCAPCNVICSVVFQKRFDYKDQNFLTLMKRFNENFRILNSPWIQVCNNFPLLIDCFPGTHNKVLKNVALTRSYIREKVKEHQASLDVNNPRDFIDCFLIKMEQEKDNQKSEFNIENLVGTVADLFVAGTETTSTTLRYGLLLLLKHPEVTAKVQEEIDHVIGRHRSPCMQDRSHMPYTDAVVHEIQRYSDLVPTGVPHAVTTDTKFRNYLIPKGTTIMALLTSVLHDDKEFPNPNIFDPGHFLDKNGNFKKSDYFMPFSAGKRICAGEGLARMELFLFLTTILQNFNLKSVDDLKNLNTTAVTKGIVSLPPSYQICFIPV
In words: N-in-one CYP inhibition assay in human liver microsomes; type of inhibition. How it is done:
as §1, §2
(§3) Dixon, Lineweaver-Burk, Hanes, and Hofstee plots were used for the analysis of the type of inhibition.

In another series the target is CYP2D6 (Homo sapiens, UniProt P10635). Described as above. How it is done:
as §1, §2, §3

In the next series the target is T3, CYP1A2 (Homo sapiens, UniProt P05177).
T3 sequence (P05177 1-516): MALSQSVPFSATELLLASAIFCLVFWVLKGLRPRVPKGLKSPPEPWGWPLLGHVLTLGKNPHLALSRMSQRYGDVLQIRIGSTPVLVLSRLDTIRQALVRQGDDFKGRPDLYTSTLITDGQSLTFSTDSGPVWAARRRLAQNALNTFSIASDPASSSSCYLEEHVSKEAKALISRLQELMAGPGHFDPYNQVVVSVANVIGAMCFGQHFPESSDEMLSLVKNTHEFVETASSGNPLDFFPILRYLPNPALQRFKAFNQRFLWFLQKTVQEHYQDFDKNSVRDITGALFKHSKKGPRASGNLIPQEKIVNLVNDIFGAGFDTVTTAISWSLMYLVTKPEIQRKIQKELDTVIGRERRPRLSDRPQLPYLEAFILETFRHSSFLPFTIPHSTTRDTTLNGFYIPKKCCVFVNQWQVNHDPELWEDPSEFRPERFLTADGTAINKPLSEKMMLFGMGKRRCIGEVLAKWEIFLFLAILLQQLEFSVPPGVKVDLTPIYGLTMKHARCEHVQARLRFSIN
In words: biochemical. How it is done: as §1, §2

A short description of series [1]: Overall safety in the three clinical studies. The series is classed as in vivo, human. As to conditions: healthy postmenopausal women, with and without ospemifene. The source says:
All experiments with human subjects were based on voluntary informed consent and the clinical study protocols had appropriate ethical and regulatory approval. Subjects were asked to immediately report any significant adverse events (AEs) that occurred during the study; minor AEs were reported at clinic visits. AEs were coded and classified according to the Medical Dictionary for Regulatory Activities.

For a further series, the target named is T4, CYP2B6 (Homo sapiens, UniProt P20813).
T4 sequence (P20813 1-491): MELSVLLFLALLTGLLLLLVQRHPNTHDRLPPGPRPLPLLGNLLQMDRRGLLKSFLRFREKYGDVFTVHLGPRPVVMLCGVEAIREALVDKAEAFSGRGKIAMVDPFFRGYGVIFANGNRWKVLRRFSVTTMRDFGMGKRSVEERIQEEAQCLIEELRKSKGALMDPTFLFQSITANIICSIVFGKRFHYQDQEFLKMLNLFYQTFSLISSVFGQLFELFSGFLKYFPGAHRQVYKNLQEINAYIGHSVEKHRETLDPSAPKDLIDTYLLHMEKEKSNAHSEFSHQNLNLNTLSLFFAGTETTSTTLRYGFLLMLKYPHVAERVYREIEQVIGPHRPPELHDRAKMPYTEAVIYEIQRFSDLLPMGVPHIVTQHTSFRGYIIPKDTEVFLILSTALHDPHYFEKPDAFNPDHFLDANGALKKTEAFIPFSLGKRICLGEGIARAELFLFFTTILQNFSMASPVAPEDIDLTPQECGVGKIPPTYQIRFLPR
In words: biochemical. How it is done:
as §1, §2, §3

A further series concerns the target CYP2C19 (Homo sapiens, UniProt P33261). In words: biochemical. The note with it: for IC50: human liver microsomes, probe 2 μM. How it is done:
as §1, §2, §3

SMILES strings stand for the structures.

CYP2C19, sequence (P33261 whole entry): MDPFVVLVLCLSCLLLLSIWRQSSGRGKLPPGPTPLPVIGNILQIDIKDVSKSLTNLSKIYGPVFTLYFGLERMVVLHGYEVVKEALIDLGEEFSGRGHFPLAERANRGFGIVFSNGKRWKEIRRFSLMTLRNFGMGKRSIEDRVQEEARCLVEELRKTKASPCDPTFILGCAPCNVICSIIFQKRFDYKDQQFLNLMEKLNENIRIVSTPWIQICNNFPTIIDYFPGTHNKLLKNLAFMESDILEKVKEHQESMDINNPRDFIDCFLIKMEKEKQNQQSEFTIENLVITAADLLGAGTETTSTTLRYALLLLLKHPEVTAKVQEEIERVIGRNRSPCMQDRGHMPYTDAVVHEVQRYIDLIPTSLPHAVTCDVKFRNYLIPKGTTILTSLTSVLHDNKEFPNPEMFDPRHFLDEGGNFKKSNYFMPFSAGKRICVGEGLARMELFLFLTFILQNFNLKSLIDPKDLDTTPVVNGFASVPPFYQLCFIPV
CYP2D6, sequence (P10635 whole entry): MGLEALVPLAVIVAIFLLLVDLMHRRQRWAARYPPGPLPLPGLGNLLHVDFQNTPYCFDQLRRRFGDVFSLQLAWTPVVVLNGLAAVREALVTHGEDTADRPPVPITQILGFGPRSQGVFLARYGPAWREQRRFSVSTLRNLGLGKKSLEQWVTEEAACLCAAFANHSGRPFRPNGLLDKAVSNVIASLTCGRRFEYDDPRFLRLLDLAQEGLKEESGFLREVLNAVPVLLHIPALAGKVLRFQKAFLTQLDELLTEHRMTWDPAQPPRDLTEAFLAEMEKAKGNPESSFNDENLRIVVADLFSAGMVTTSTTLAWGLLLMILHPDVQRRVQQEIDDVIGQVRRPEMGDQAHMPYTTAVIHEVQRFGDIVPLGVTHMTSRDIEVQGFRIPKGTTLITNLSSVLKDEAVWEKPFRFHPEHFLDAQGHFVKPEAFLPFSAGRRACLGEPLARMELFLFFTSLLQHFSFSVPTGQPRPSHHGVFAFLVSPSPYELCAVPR
CYP2E1, sequence (P05181 whole entry, canonical isoform): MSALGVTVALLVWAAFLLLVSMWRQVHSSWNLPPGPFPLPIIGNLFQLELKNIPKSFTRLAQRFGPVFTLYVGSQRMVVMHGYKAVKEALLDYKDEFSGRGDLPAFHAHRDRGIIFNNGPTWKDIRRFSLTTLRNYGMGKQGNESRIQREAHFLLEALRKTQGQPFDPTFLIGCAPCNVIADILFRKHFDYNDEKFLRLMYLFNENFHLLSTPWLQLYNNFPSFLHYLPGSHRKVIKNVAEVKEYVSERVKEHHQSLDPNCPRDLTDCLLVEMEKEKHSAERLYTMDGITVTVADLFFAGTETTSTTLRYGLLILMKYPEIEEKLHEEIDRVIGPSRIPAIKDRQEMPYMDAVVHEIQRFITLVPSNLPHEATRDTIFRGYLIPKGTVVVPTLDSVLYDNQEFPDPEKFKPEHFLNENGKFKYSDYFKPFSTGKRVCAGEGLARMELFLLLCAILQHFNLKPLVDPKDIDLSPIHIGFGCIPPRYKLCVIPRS

As usually defined, the IC50 is the concentration that inhibits the measured activity by half. Low values mean inhibition by little substance, high ones a need for much substance. For `OCCOc1ccc(/C(=C(/CCCl)c2ccccc2)c2ccccc2)cc1` [Ospemifene], the IC50 against CYP2E1 is more than 100 µM; at CYP2A6 it was more than 100 µM; against CYP2C8 it was 36.4 µM; against CYP2D6, 48.7 µM; against CYP1A2, more than 100 µM; against CYP2B6 it was 7.8 µM. The IC50 at CYP2C19 (IC50, Omeprazole 5-hydroxylation) was determined as 22.5 µM; on CYP2C19 (IC50, Omeprazole demethylation) it was 47.2 µM. Further, the Type of inhibition result at CYP2C8 (results not shown) is “likely competitive”; at CYP2D6 (results not shown) it was “competitive”; at CYP2B6 (results not shown), “competitive”; at CYP2C19 (results not shown), “noncompetitive”. The Tolerability entry in series [1] is “well tolerated”.

These data come from paper PMC3742231 (International Journal of Molecular Sciences, 2013).
